The CheMixHub viscosity set
Where “and” joins values, the source holds several entries; their conditions need not be identical. Identical values can stand only once. ± gives the uncertainty stated by the source.

What was measured:
[1] = xn = mol fraction of the nth substance listed

CCOc1ccccc1
viscosity
Conditions | 101 kPa | 101.3 kPa | 101.33 kPa
293.15 K | 1.222 ± 0.051 mPa·s and 1.27 ± 0.05 mPa·s | 1.366 ± 0.042 mPa·s | 1.231 ± 0.014 mPa·s
293.35 K | 1.24 ± 0.013 mPa·s | – | –
298 K | – | – | 1.164 ± 0.025 mPa·s
302.75 K | 1.03 ± 0.01 mPa·s | – | –
303 K | – | – | 1.068 ± 0.023 mPa·s
303.15 K | 1.038 ± 0.051 mPa·s and 1.05 ± 0.04 mPa·s | – | 1.036 ± 0.012 mPa·s
308 K | – | – | 0.983 ± 0.022 mPa·s
308.15 K | 0.978 ± 0.051 mPa·s | 0.9842 ± 0.034 mPa·s | –
313.15 K | 0.901 ± 0.05 mPa·s and 0.875 ± 0.009 mPa·s | – | 0.894 ± 0.01 mPa·s
318.15 K | 0.839 ± 0.05 mPa·s | 0.8284 ± 0.031 mPa·s | –
323.15 K | 0.782 ± 0.05 mPa·s | – | –

CC[NH+](CC)CC.O=S(=O)([O-])O
101 kPa
Conditions | viscosity
303.15 K | 153 ± 3 mPa·s and 153 ± 3.2 mPa·s
308.15 K | 138 ± 3 mPa·s and 138 ± 2.9 mPa·s
313.15 K | 108 ± 2 mPa·s

CC(=O)N(C(C)C)C(C)C
Conditions | viscosity [mPa·s]
298.16 K, 101 kPa | 2.18 ± 0.019

CCCCCCCCCCCCBr
101 kPa
Conditions | viscosity [mPa·s]
298.08 K | 3.373 ± 0.086
303.1 K | 3.024 ± 0.077
308.11 K | 2.689 ± 0.069
313.11 K | 2.437 ± 0.062

COCCOCC[n+]1ccn(CCC#N)c1.O=S(=O)([N-]S(=O)(=O)C(F)(F)F)C(F)(F)F
101.33 kPa
Conditions | viscosity [mPa·s]
293.15 K | 296.5 ± 12
303.15 K | 169 ± 6
313.15 K | 103.2 ± 3.4
323.15 K | 74.62 ± 2.4

CCOC(C)=O
Conditions | viscosity
296 K, 101.3 kPa | 0.437 ± 0.008 mPa·s
298 K, 101.3 kPa | 0.439 ± 0.006 mPa·s and 0.439 ± 0.044 mPa·s
298.15 K, 100 kPa | 0.42 ± 0.2 mPa·s and 0.42 ± 0.08 mPa·s
298.15 K, 101.3 kPa | 0.4407 ± 0.0042 mPa·s (2×) and 0.439 ± 0.013 mPa·s
298.15 K, 101.33 kPa | 0.457 ± 0.013 mPa·s and 0.424 ± 0.025 mPa·s and 0.424 ± 0.048 mPa·s
303.15 K, 101.3 kPa | 0.4178 ± 0.0041 mPa·s and 0.4178 ± 0.004 mPa·s
308.15 K, 101.3 kPa | 0.3972 ± 0.0039 mPa·s and 0.3972 ± 0.0038 mPa·s
313.15 K, 101.3 kPa | 0.376 ± 0.0038 mPa·s and 0.376 ± 0.0037 mPa·s
313.15 K, 101.32 kPa | 0.369 ± 0.01 mPa·s
313.15 K, 101.33 kPa | 0.368 ± 0.006 mPa·s
318 K, 101.3 kPa | 0.3829 ± 0.016 mPa·s
318 K, 101.33 kPa | 0.3829 ± 0.039 mPa·s
318.15 K, 101.3 kPa | 0.358 ± 0.0036 mPa·s
318.15 K, 101.33 kPa | 0.35 ± 0.006 mPa·s
323.15 K, 100 kPa | 0.3053 ± 0.0025 mPa·s
323.15 K, 101 kPa | 0.341 ± 0.008 mPa·s and 0.327 ± 0.02 mPa·s and 0.3356 ± 0.0091 mPa·s
323.15 K, 101.3 kPa | 0.3407 ± 0.0035 mPa·s and 0.3407 ± 0.0034 mPa·s

CCCCCC[n+]1ccn(C)c1.O=S(=O)([O-])C(F)(F)F
100 kPa
Conditions | viscosity [mPa·s]
293.15 K | 194.9 ± 20
298.15 K | 150.8 ± 15
303.15 K | 115.7 ± 12
308.15 K | 91.13 ± 9.2
313.15 K | 74.03 ± 7.4

CCCCCCC(=O)O
Conditions | viscosity [mPa·s]
298.15 K, 101 kPa | 3.784 ± 0.098

CCCCCC[N+](CC)(CC)CC.O=S(=O)([N-]S(=O)(=O)C(F)(F)F)C(F)(F)F
100 kPa
Conditions | viscosity [mPa·s]
293.15 K | 241.4 ± 25
313.15 K | 80.71 ± 8.1

Clc1cccc(Cl)c1
viscosity
Conditions | 298.15 K | 303.15 K | 308.15 K | 313.15 K | 318.15 K
100 kPa | 1.017 ± 0.022 mPa·s | 0.945 ± 0.009 mPa·s | 0.895 ± 0.008 mPa·s and 0.906 ± 0.019 mPa·s | 0.849 ± 0.008 mPa·s | 0.799 ± 0.008 mPa·s and 0.809 ± 0.017 mPa·s
101 kPa | – | 0.949 ± 0.012 mPa·s and 0.945 ± 0.02 mPa·s | 0.895 ± 0.012 mPa·s and 0.895 ± 0.019 mPa·s | 0.849 ± 0.018 mPa·s | 0.799 ± 0.017 mPa·s

OCC(O)CO
Conditions | viscosity
293.15 K, 100 kPa | 1360 ± 210 mPa·s
294 K, 101 kPa | 1390 ± 430 mPa·s
298 K, 101 kPa | 946.5 ± 110 mPa·s
298.15 K, 100 kPa | 860 ± 130 mPa·s
298.15 K, 101.33 kPa | 803.7 ± 87 mPa·s
303 K, 101 kPa | 611.3 ± 66 mPa·s and 409.6 ± 29 mPa·s
303.15 K, 100 kPa | 542 ± 80 mPa·s
308 K, 101 kPa | 413.9 ± 44 mPa·s
308.15 K, 101 kPa | 405.8 ± 19 mPa·s
308.15 K, 101.33 kPa | 351.5 ± 37 mPa·s
313 K, 101 kPa | 285.5 ± 30 mPa·s
313.15 K, 100 kPa | 217 ± 32 mPa·s
313.15 K, 101 kPa | 231 ± 24 mPa·s and 284 ± 10 mPa·s and 289.4 ± 95 mPa·s
318 K, 101 kPa | 213.7 ± 22 mPa·s
318.15 K, 101 kPa | 182.5 ± 5.9 mPa·s and 176.2 ± 5 mPa·s
318.15 K, 101.33 kPa | 157.1 ± 16 mPa·s
323 K, 101 kPa | 141 ± 15 mPa·s
323.15 K, 101 kPa | 142 ± 4 mPa·s and 153.8 ± 48 mPa·s

COc1ccc(C=O)cc1
101 kPa
Conditions | viscosity
303.15 K | 3.251 ± 0.75 mPa·s and 3.578 ± 0.36 mPa·s and 3.251 ± 0.024 mPa·s
308.15 K | 3.131 ± 0.72 mPa·s and 3.035 ± 0.3 mPa·s and 3.131 ± 0.023 mPa·s
313.15 K | 2.961 ± 0.68 mPa·s and 2.649 ± 0.27 mPa·s and 2.961 ± 0.022 mPa·s
318.15 K | 2.682 ± 0.62 mPa·s and 2.34 ± 0.23 mPa·s and 2.682 ± 0.02 mPa·s

[O-][Cl+3]([O-])([O-])O[Cl+3]([O-])([O-])[O-]
Conditions | viscosity [mPa·s]
293.15 K, 101.33 kPa | 0.698 ± 0.023

CCCCCCCCn1cc[n+](C)c1.[Cl-]
101 kPa
Conditions | viscosity [mPa·s]
313.15 K | 4062 ± 1600
323.15 K | 2043 ± 660

CCCCCCCCCCCC(=O)OC
100 kPa
Conditions | viscosity
293.15 K | 3.12 ± 0.066 mPa·s and 3.128 ± 0.13 mPa·s
298.15 K | 2.778 ± 0.059 mPa·s
303.15 K | 2.491 ± 0.053 mPa·s
308.15 K | 2.25 ± 0.048 mPa·s
318.15 K | 1.877 ± 0.13 mPa·s
323.15 K | 1.712 ± 0.036 mPa·s and 1.717 ± 0.13 mPa·s

COC(=O)CC(C)=O
101.3 kPa
Conditions | viscosity
298.15 K | 1.566 ± 0.038 mPa·s and 1.564 ± 0.038 mPa·s and 1.564 ± 0.021 mPa·s
303.15 K | 1.422 ± 0.035 mPa·s and 1.421 ± 0.035 mPa·s and 1.421 ± 0.019 mPa·s
308.15 K | 1.298 ± 0.032 mPa·s and 1.298 ± 0.018 mPa·s

CS(=O)(=O)[O-].C[N+](C)(CCO)CCO
101.33 kPa
Conditions | viscosity [mPa·s]
298.15 K | 1495 ± 180
303.15 K | 1021 ± 110
308.15 K | 716.3 ± 73
313.15 K | 513.1 ± 48
318.15 K | 377.6 ± 33
323.15 K | 282.4 ± 23

FC(F)(F)C(F)(F)Cl + FC(F)Cl
Conditions | viscosity [mPa·s]
[1], 298.15 K, 101 kPa, x2 = 0.63 | 0.16 ± 0.02

COC(=O)CC(C)=O + CCCO
viscosity [mPa·s], [1], 101.3 kPa
Conditions | x1 = 0.1028 | x1 = 0.2021 | x1 = 0.3067 | x1 = 0.407 | x1 = 0.5069 | x1 = 0.609 | x1 = 0.7057 | x1 = 0.8054 | x1 = 0.9036
298.15 K | 1.497 ± 0.037 | 1.333 ± 0.033 | 1.253 ± 0.031 | 1.221 ± 0.03 | 1.219 ± 0.03 | 1.238 ± 0.031 | 1.278 ± 0.032 | 1.339 ± 0.033 | 1.501 ± 0.1
303.15 K | 1.337 ± 0.033 | 1.213 ± 0.03 | 1.128 ± 0.028 | 1.102 ± 0.028 | 1.104 ± 0.028 | 1.123 ± 0.028 | 1.163 ± 0.029 | 1.217 ± 0.03 | 1.295 ± 0.032
308.15 K | 1.198 ± 0.03 | 1.096 ± 0.028 | 1.024 ± 0.026 | 1.003 ± 0.025 | 1.007 ± 0.026 | 1.027 ± 0.026 | 1.062 ± 0.027 | 1.114 ± 0.028 | 1.183 ± 0.029

COC(=O)CC(C)=O + CCO
viscosity [mPa·s], [1], 101.3 kPa
Conditions | x1 = 0.1051 | x1 = 0.204 | x1 = 0.3085 | x1 = 0.4046 | x1 = 0.507 | x1 = 0.607 | x1 = 0.7033 | x1 = 0.8022 | x1 = 0.902
298.15 K | 0.96 ± 0.025 | 0.942 ± 0.024 | 0.965 ± 0.025 | 0.995 ± 0.025 | 1.057 ± 0.027 | 1.121 ± 0.028 | 1.202 ± 0.03 | 1.3 ± 0.032 | 1.422 ± 0.035
303.15 K | 0.879 ± 0.023 | 0.866 ± 0.022 | 0.883 ± 0.023 | 0.913 ± 0.023 | 0.968 ± 0.025 | 1.027 ± 0.026 | 1.099 ± 0.028 | 1.187 ± 0.03 | 1.294 ± 0.032
308.15 K | 0.806 ± 0.021 | 0.798 ± 0.021 | 0.814 ± 0.021 | 0.841 ± 0.022 | 0.892 ± 0.023 | 0.946 ± 0.024 | 1.011 ± 0.026 | 1.092 ± 0.027 | 1.186 ± 0.03
